Laboratory results reported in US20170227553A1, “COMPOSITIONS AND METHODS FOR IDENTIFYING AND TREATING CONDITIONS INVOLVING HSF1 ACTIVITY” (Duke University, priority 2014, published 2017).

Tests used:
HD cell models = experiment: HSF1 levels revived with CK2 inhibitors in HD cell models; format: cell-based
[1] = tested on: Htt-Q74 expressing PC12 cells; experiment: Hsp70 immunoblot after CK2 inhibitor pre-treatment, Htt-Q74 induction and heat shock; format: cell-based, rat; settings: 0.5, 1 and 5 μM for 15 h prior to doxycycline induction; heat shock 42° C. 1 h, 7 h recovery
Procedure: Then cells were either not treated (−Dox) or treated with doxycycline at 1 microgram/mL during 3 days (+Dox) at 37° C. Cells were then heat shocked at 42° C. (1 h) followed by 7 h recovery (HS) at 37° C. Total protein was analyzed by SDS-PAGE and immunoblotting for Hsp70 and GAPDH. (D) Cells from CK2 kinase inhibitor treatment were analyzed by fluorescence microscopy using GFP as a marker for Htt-Q74 aggregation and the number of cells with inclusions bodies was quantified and normalized with total cell number from DIC images, as a measure of Htt-Q74 protein aggregation. Data are presented as mean±SE from three separate experiments (* P<0.05, ** P<0.01). (E) Htt-Q74 PC12 cells were incubated at 37° C. in a 96-well plate in the presence of either DMSO or the kinase inhibitor TID43 at 5 microMolar final concentration during 15 h prior to Htt-Q74 induction by doxycycline. Cells were then either not treated or treated with doxycycline at 1 microgram/mL for 3 days (+Dox) at 37° C. and then heat shocked at 42° C. (1 h) followed by 7 h recovery (HS) at 37° C. Cell viability was analyzed using the Cell Titer Glo assay (Promega) and values were expressed as percentage of viable cells compared with untreated cells at 37° C. Data are presented as means±SE from three separate experiments (* P<0.05). […]

SMILES	HSF1 levels (HD cell models)	HSF1 activation, Hsp70 expression levels (immunoblot) [1]
O=C(O)c1c[nH]c2c(Cl)c(Cl)ccc2c1=O [Cay10577, 7,8-dichloro-1,4-dihydro-4-oxo-3-quinolinecarboxylic acid]	revived	–
Cc1cc(O)c2c(c1)C(=O)c1cc(O)cc(O)c1C2=O [Emodin]	–	rescue HSF1 activation, Hsp70 expression levels
Cn1cc(C2=C(c3ccc(Cl)cc3Cl)C(=O)NC2=O)c2ccccc21 [SB216763]	revived	rescue HSF1 activation, Hsp70 expression levels
Brc1c(Br)c(Br)c2[nH]cnc2c1Br [TBBz]	revived	–
